Test results: paper PMC6647725 (Analytical and Bioanalytical Chemistry, 2019)

Experiments:
[1] = Stability in human plasma and its final extract (LC-MS/MS); type: in vitro ADME
Experimental: 50 μL of the sample (either from a preclinical study, calibration standard, or QC) was mixed with 25 μL of IS-working solution, followed by 150 μL of ACN for protein precipitation. Samples were vortex mixed and centrifuged at 23,100g for 10 min at 20 °C. An aliquot of 80 μL of supernatant was diluted with 120 μL of 10 mM ammonium bicarbonate in water:MeOH (1:1 v/v). The final extract was transferred to a glass vial with insert, and 10 μL was injected to the LC-MS/MS system for analysis.
The stability of each analyte was investigated in all the previously mentioned matrices. For plasma (both human and mouse), the stability was determined in triplicate at two concentration levels, QC L and QC H, whereas for mouse tissue homogenates only at QC M (except the brain in one stability condition). For all matrices, the following stability conditions were assessed: short term at room temperature (RT), long term at − 20 °C, and after 3 freeze-thaw (F/T) cycles at − 20 °C/RT. Furthermore, for tissue homogenates, the short-term stability in ice-water, long-term stability at − 70 °C, and F/T stability at − 70 °C/ice-water were also evaluated. Additionally, the stability in the final extract was tested. […] Lastly, the stability of the stock solutions at − 20 °C was investigated.

[2] = Stability in mouse liver homogenate and its final extract; type: in vitro ADME; conditions: nominal 50 ng/mL
Experimental: (§1) After weighing the complete organ, a volume of 3 mL of this solution was added to the liver and small intestine, 2 mL to the kidneys, and 1 mL to the brain and spleen. The tissue/BSA ratio (w/v) of the homogenates were approximately 0.4:1 for the brain and liver, 0.1:1 for the spleen, 0.2:1 for the kidneys, and 0.25:1 for the small intestine. All samples were shaken in the Fast Prep at 6.0 m/s during 60 s. The stability of each analyte was investigated in all the previously mentioned matrices. For plasma (both human and mouse), the stability was determined in triplicate at two concentration levels, QC L and QC H, whereas for mouse tissue homogenates only at QC M (except the brain in one stability condition). For all matrices, the following stability conditions were assessed: short term at room temperature (RT), long term at − 20 °C, and after 3 freeze-thaw (F/T) cycles at − 20 °C/RT. Furthermore, for tissue homogenates, the short-term stability in ice-water, long-term stability at − 70 °C, and F/T stability at − 70 °C/ice-water were also evaluated. Additionally, the stability in the final extract was tested. For this, the QC L and QC H final extracts from the plasma, brain, and spleen and the QC M final extract from the liver, kidney and small intestine were stored at 4–8 °C up to 3 days. Lastly, the stability of the stock solutions at − 20 °C was investigated.

[3] = Stability in mouse spleen homogenate and its final extract; type: in vitro ADME
Experimental: as §1

[4] = Stability in mouse kidney homogenate and its final extract; type: in vitro ADME; conditions: nominal 50 ng/mL
Experimental: as §1

[5] = Stability in mouse brain homogenate and its final extract; type: in vitro ADME
Experimental: as §1

[6] = Stability in mouse small intestine homogenate and its final extract; type: in vitro ADME; conditions: nominal 50 ng/mL
Experimental: as §1

[7] = Stability in tissue homogenates; type: in vitro ADME, mouse; conditions: all tissue homogenates and conditions of Table 6
Experimental: The stability of each analyte was investigated in all the previously mentioned matrices. For plasma (both human and mouse), the stability was determined in triplicate at two concentration levels, QC L and QC H, whereas for mouse tissue homogenates only at QC M (except the brain in one stability condition). For all matrices, the following stability conditions were assessed: short term at room temperature (RT), long term at − 20 °C, and after 3 freeze-thaw (F/T) cycles at − 20 °C/RT. Furthermore, for tissue homogenates, the short-term stability in ice-water, long-term stability at − 70 °C, and F/T stability at − 70 °C/ice-water were also evaluated. Additionally, the stability in the final extract was tested. For this, the QC L and QC H final extracts from the plasma, brain, and spleen and the QC M final extract from the liver, kidney and small intestine were stored at 4–8 °C up to 3 days. Lastly, the stability of the stock solutions at − 20 °C was investigated.

CDK4 = conditions: cited from earlier work
CDK6 = conditions: cited from earlier work
[8] = final extract (listed under human plasma), 4–8 °C, 4 d, nominal 5 ng/mL
[9] = final extract (listed under human plasma), 4–8 °C, 4 d, nominal 150 ng/mL
[10] = human plasma, RT, 3 d, nominal 150 ng/mL
[11] = liver homogenate, 3 F/T (RT, − 20 °C)
[12] = liver homogenate, 3 F/T (− 70 °C, ice/water bath)
[13] = liver homogenate, LT − 20 °C, 1 m
[14] = liver homogenate, LT − 70 °C, 1 m
[15] = liver homogenate, ice/water bath, 3 h
[16] = final extract (listed under spleen homogenate), 4–8 °C, 3 d, nominal 5 ng/mL
[17] = final extract (listed under spleen homogenate), 4–8 °C, 3 d, nominal 150 ng/mL
[18] = spleen homogenate, 3 F/T (− 70 °C, ice/water bath), nominal 50 ng/mL
[19] = spleen homogenate, LT − 70 °C, 1 m, nominal 50 ng/mL
[20] = spleen homogenate, RT, 3 h, nominal 50 ng/mL
[21] = spleen homogenate, ice/water bath, 3 h, nominal 50 ng/mL
[22] = kidney homogenate, 3 F/T (− 70 °C, ice/water bath)
[23] = kidney homogenate, LT − 70 °C, 1 m
[24] = brain homogenate, 3 F/T (RT, − 20 °C), nominal 50 ng/mL
[25] = brain homogenate, 3 F/T (− 70 °C, ice/water bath), nominal 50 ng/mL
[26] = brain homogenate, LT − 20 °C, 1 m, nominal 50 ng/mL
[27] = brain homogenate, LT − 70 °C, 1 m, nominal 50 ng/mL
[28] = brain homogenate, RT, 1 d, nominal 5 ng/mL
[29] = brain homogenate, RT, 1 d, nominal 150 ng/mL
[30] = brain homogenate, ice/water bath, 3 h, nominal 50 ng/mL
[31] = final extract (listed under brain homogenate), 4–8 °C, 3 d, nominal 150 ng/mL
[32] = final extract (listed under small intestine homogenate), 4–8 °C, 2 d
[33] = small intestine homogenate, 3 F/T (− 70 °C, ice/water bath)
[34] = small intestine homogenate, RT, 3 h
[35] = small intestine homogenate, ice/water bath, 3 h

## CCN1CCN(Cc2ccc(Nc3ncc(F)c(-c4cc(F)c5nc(C)n(C(C)C)c5c4)n3)nc2)CC1 [Abemaciclib]
[1]; [8]
  Accuracy (% Bias): 4.5%
[1]; [9]
  Accuracy (% Bias): 7.1%
[1]; human plasma, 3 F/T (− 20 °C/RT), nominal 5 ng/mL
  Mean concentration: […]
[1]; human plasma, 3 F/T (− 20 °C/RT), nominal 150 ng/mL
  Mean concentration: […]
[1]; human plasma, RT, 3 d, nominal 5 ng/mL
  Mean concentration: […]
[1]; [10]
  Accuracy (% Bias): 6.2%
[1]; human plasma, − 20 °C, 12 m, nominal 5 ng/mL
  Mean concentration: […]
[1]; human plasma, − 20 °C, 12 m, nominal 150 ng/mL
  Mean concentration: […]
[2]; final extract (listed under liver homogenate), 4–8 °C, 2 d
  Mean concentration: […]
[2]; [11]
  Accuracy (% Bias): 5.0%
[2]; [12]
  Accuracy (% Bias): 0.1%
  Mean concentration: 50.0 ng/mL
[2]; [13]
  Accuracy (% Bias): 1.4%
[2]; [14]
  Accuracy (% Bias): 1.2%
[2]; liver homogenate, RT, 1 d
  Mean concentration: […]
[2]; [15]
  Accuracy (% Bias): 3.8%
[3]; [16]
  Accuracy (% Bias): 10.7%
[3]; [17]
  Accuracy (% Bias): 4.2%
[3]; spleen homogenate, 3 F/T (RT, − 20 °C), nominal 50 ng/mL
  Mean concentration: […]
[3]; [18]
  Accuracy (% Bias): 12.1%
  Mean concentration: 56.1 ng/mL
[3]; spleen homogenate, LT − 20 °C, 1 m, nominal 50 ng/mL
  Mean concentration: […]
[3]; [19]
  Accuracy (% Bias): 3.5%
[3]; [20]
  Accuracy (% Bias): 3.4%
[3]; spleen homogenate, RT, 1 d, nominal 50 ng/mL
  Mean concentration: 46.5 ng/mL
[3]; [21]
  Accuracy (% Bias): 4.9%
[4]; final extract (listed under kidney homogenate), 4–8 °C, 2 d
  Mean concentration: […]
[4]; kidney homogenate, 3 F/T (RT, − 20 °C)
  Mean concentration: […]
[4]; [22]
  Accuracy (% Bias): 3.6%
[4]; kidney homogenate, LT − 20 °C, 1 m
  Mean concentration: […]
[4]; [23]
  Accuracy (% Bias): 5.5%
[4]; kidney homogenate, RT, 3 h
  Accuracy (% Bias): 1.7%
[4]; kidney homogenate, RT, 1 d
  Mean concentration: 43.3 ng/mL
[4]; kidney homogenate, ice/water bath, 3 h
  Mean concentration: […]
[5]; [24]
  Accuracy (% Bias): 6.9%
  Mean concentration: 53.4 ng/mL
[5]; [25]
  Accuracy (% Bias): 2.2%
[5]; [26]
  Accuracy (% Bias): 3.9%
[5]; [27]
  Accuracy (% Bias): 4.3%
[5]; [28]
  Accuracy (% Bias): 6.2%
  Mean concentration: 5.3 ng/mL
[5]; [29]
  Accuracy (% Bias): 11.3%
  Mean concentration: 167 ng/mL
[5]; [30]
  Accuracy (% Bias): 10.4%
  Mean concentration: 55.2 ng/mL
[5]; final extract (listed under brain homogenate), 4–8 °C, 3 d, nominal 5 ng/mL
  Mean concentration: […]
[5]; [31]
  Accuracy (% Bias): 8.7%
[6]; [32]
  Accuracy (% Bias): 4.7%
[6]; small intestine homogenate, 3 F/T (RT, − 20 °C)
  Mean concentration: […]
[6]; [33]
  Accuracy (% Bias): 1.5%
[6]; small intestine homogenate, LT − 20 °C, 1 m
  Mean concentration: 48.2 ng/mL
[6]; small intestine homogenate, LT − 70 °C, 1 m
  Mean concentration: 48.3 ng/mL
[6]; [34]
  Accuracy (% Bias): 12.3%
  Mean concentration: 56.4 ng/mL
[6]; small intestine homogenate, RT, 1 d
  Mean concentration: 46.4 ng/mL
[6]; [35]
  Accuracy (% Bias): 3.1%
[7]
  stability in tissue homogenates (in words): stable in all matrices at all conditions
CDK4
  IC50: […]
CDK6
  IC50: […]
